Literature values in patent publication US11725135B2 (priority 2019, dated 2023).

Structure (SMILES): F[Si-2](F)(F)(F)(F)F.[K+].[K+] [Example K2SiF6, potassium hexafluorosilicate]
- concentration above which precipitation occurs / solubility: 1800 µg/mL

Structure (SMILES): F[Si-2](F)(F)(F)(F)F.[Na+].[Na+] [Na2SiF6]
- concentration above which precipitation occurs / solubility: 6400 µg/mL
